Assay results taken from patent US8729062B2, “Benzyl azetidine derivatives as sphingosine 1-phosphate (S1P) receptor modulators” (Allergan, Inc., priority 2010, dated 2014).

Each compound was assayed against T1, human S1P1 receptor (Homo sapiens, UniProt P21453) (assay: GTP γ35S binding assay for S1P1 activity). Conditions: membranes of cells stably expressing S1P1 receptor, agonist potency, test range 0.08 to 5,000 nM.
T1 construct: expressed in transfected cells; membranes used
T1 sequence (P21453 whole entry): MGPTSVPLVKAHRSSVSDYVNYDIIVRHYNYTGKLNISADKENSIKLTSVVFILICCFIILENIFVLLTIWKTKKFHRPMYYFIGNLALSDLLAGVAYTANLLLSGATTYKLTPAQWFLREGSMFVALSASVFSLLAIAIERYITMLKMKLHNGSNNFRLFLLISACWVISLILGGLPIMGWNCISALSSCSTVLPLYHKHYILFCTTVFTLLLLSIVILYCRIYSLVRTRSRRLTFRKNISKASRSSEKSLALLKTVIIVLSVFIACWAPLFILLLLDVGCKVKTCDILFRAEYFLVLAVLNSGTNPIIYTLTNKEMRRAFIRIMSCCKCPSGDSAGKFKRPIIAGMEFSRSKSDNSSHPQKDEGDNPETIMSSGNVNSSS
Assay type: biochemical
Description: Compounds were synthesized and tested for S1P1 activity using the GTP γ^35S binding assay. These compounds may be assessed for their ability to activate or block activation of the human S1P1 receptor in cells stably expressing the S1P1 receptor.
GTP γ^35S binding was measured in the medium containing (mM) HEPES 25, pH 7.4, MgCl2 10, NaCl 100, dithitothreitol 0.5, digitonin 0.003%, 0.2 nM GTP γ^35S, and 5 μg membrane protein in a volume of 150 μl. Test compounds were included in the concentration range from 0.08 to 5,000 nM unless indicated otherwise. Membranes were incubated with 100 μM 5′-adenylylimmidodiphosphate for 30 min, and subsequently with 10 μM GDP for 10 min on ice. Drug solutions and membrane were mixed, and then reactions were initiated by adding GTP γ^35S and continued for 30 min at 25° C. Reaction mixtures were filtered over Whatman GF/B filters under vacuum, and washed three times with 3 mL of ice-cold buffer (HEPES 25, pH7.4, MgCl2 10 and NaCl 100). Filters were dried and mixed with scintillant, and counted for ^35S activity using a […]. Agonist-induced GTP γ^35S binding was obtained by subtracting that in the absence of agonist. Binding data were analyzed using a non-linear regression method. In case of antagonist assay, the reaction mixture contained 10 nM S1P in the presence of test antagonist at concentrations ranging from 0.08 to 5000 nM.
With `Cc1ccc(CC(c2cccc(C(F)(F)F)c2)c2nc(-c3ccc(CN4CC(C(=O)O)C4)cc3)no2)cc1C` (centres unmarked) [1-[4-(5-{2-(3,4-dimethylphenyl)-1-[3-(trifluoromethyl)phenyl]ethyl}-1,2,4-oxadiazol-3-yl)benzyl]azetidine-3-carboxylic acid] the EC50 was 89.3 nM.
`Cc1cc(C)cc(C(Cc2ccc(C)c(C)c2)c2nc(-c3ccc(CN4CC(C(=O)O)C4)cc3)no2)c1` (centres unmarked) [1-(4-{5-[2-(3,4-dimethylphenyl)-1-(3,5-dimethylphenyl)ethyl]-1,2,4-oxadiazol-3-yl}benzyl)azetidine-3-carboxylic acid] gave an EC50 of 535 nM.
Work on `Cc1ccc(CC(c2nc(-c3ccc(CN4CC(C(=O)O)C4)cc3)no2)c2cccs2)cc1` (centres unmarked) [1-(4-{5-[2-(4-methylphenyl)-1-(2-thienyl)ethyl]-1,2,4-oxadiazol-3-yl}benzyl)azetidine-3-carboxylic acid] yielded an EC50 of 209 nM.
`O=C(O)C1CN(Cc2ccc(-c3noc(C(CC4CCCCC4)c4cccc(Cl)c4)n3)cc2)C1` (centres unmarked) [1-(4-{5-[1-(3-chlorophenyl)-2-cyclohexylethyl]-1,2,4-oxadiazol-3-yl}benzyl)azetidine-3-carboxylic acid] was tested, and the EC50 was 1240 nM.
`Cc1ccc(CC(c2cccc(F)c2)c2nc(-c3ccc(CN4CC(C(=O)O)C4)cc3)no2)cc1C` (centres unmarked) [Compound 2, 1-(4-{5-[1-(3-fluorophenyl)-2-(3,4-dimethylphenyl)ethyl]-1,2,4-oxadiazol-3-yl}benzyl)azetidine-3-carboxylic acid] was tested, and the EC50 was 1.5 nM.
In the case of `Cc1ccc(CC(c2ccsc2)c2nc(-c3ccc(CN4CC(C(=O)O)C4)cc3)no2)cc1C` (centres unmarked) [1-(4-{5-[2-(3,4-dimethylphenyl)-1-(3-thienyl)ethyl]-1,2,4-oxadiazol-3-yl}benzyl)azetidine-3-carboxylic acid], the EC50 is reported as 76.7 nM.
Work on `Cc1ccc(CC(c2ccsc2)c2nc(-c3ccc(CN4CC(C(=O)O)C4)cc3)no2)cc1` (centres unmarked) [1-(4-{5-[2-(4-methylphenyl)-1-(3-thienyl)ethyl]-1,2,4-oxadiazol-3-yl}benzyl)azetidine-3-carboxylic acid] yielded an EC50 of 146 nM.
Work on `Cc1ccc(CC(c2nc(-c3ccc(CN4CC(C(=O)O)C4)cc3)no2)c2cccs2)cc1C` (centres unmarked) [1-(4-{5-[2-(3,4-dimethylphenyl)-1-(2-thienyl)ethyl]-1,2,4-oxadiazol-3-yl}benzyl)azetidine-3-carboxylic acid] yielded an EC50 of 134 nM.
Compound `Cc1ccc(CC(c2cc(F)cc(F)c2)c2nc(-c3ccc(CN4CC(C(=O)O)C4)cc3)no2)cc1C` (centres unmarked) [1-(4-{5-[1-(3,5-difluorophenyl)-2-(3,4-dimethylphenyl)ethyl]-1,2,4-oxadiazol-3-yl}benzyl)azetidine-3-carboxylic acid] has an EC50 of 17.1 nM.
`Cc1ccc(CC(c2cccc(Cl)c2)c2nc(-c3ccc(CN4CC(C(=O)O)C4)cc3)no2)cc1C` (centres unmarked) [Compound 1, 1-(4-{5-[1-(3-Chlorophenyl)-2-(3,4-dimethylphenyl)ethyl]-1,2,4-oxadiazol-3-yl}benzyl)azetidine-3-carboxylic acid] gave an EC50 of 3.77 nM.
For `Cc1ccc(CC(c2cncc(Cl)c2)c2nc(-c3ccc(CN4CC(C(=O)O)C4)cc3)no2)cc1C` (centres unmarked) [1-(4-{5-[1-(5-chloropyridin-3-yl)-2-(3,4-dimethylphenyl)ethyl]-1,2,4-oxadiazol-3-yl}benzyl)azetidine-3-carboxylic acid], the EC50 was 29.9 nM.
